Reference: ChEMBL document CHEMBL5653615 (J Biol Chem, 2013)

Assays:
[1] = target: T1, Activin receptor type-1B (Homo sapiens) (UniProt P36896); experiment: Inhibition of human ALK4 at 18.6 nM by HotSpot assay relative to control
T1 sequence (whole entry): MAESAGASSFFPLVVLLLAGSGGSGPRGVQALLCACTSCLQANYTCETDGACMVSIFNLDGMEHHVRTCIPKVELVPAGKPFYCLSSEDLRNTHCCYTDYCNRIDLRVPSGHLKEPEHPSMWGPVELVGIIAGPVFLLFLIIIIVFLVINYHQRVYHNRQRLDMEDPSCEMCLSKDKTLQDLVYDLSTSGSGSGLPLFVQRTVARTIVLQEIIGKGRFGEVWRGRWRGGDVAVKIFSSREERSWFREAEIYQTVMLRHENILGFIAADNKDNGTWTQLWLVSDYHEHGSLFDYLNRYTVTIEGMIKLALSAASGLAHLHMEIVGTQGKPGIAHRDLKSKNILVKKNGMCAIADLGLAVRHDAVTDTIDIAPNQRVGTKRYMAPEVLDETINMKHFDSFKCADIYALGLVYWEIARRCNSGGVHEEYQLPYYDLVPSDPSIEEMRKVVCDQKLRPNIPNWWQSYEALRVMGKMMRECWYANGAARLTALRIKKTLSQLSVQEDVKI

[2] = target: Macrophage colony-stimulating factor 1 receptor (Homo sapiens) (UniProt P07333); experiment: Inhibition of human FMS at 18.6 nM by HotSpot assay relative to control
Macrophage colony-stimulating factor 1 receptor (Homo sapiens), sequence (P07333 whole entry): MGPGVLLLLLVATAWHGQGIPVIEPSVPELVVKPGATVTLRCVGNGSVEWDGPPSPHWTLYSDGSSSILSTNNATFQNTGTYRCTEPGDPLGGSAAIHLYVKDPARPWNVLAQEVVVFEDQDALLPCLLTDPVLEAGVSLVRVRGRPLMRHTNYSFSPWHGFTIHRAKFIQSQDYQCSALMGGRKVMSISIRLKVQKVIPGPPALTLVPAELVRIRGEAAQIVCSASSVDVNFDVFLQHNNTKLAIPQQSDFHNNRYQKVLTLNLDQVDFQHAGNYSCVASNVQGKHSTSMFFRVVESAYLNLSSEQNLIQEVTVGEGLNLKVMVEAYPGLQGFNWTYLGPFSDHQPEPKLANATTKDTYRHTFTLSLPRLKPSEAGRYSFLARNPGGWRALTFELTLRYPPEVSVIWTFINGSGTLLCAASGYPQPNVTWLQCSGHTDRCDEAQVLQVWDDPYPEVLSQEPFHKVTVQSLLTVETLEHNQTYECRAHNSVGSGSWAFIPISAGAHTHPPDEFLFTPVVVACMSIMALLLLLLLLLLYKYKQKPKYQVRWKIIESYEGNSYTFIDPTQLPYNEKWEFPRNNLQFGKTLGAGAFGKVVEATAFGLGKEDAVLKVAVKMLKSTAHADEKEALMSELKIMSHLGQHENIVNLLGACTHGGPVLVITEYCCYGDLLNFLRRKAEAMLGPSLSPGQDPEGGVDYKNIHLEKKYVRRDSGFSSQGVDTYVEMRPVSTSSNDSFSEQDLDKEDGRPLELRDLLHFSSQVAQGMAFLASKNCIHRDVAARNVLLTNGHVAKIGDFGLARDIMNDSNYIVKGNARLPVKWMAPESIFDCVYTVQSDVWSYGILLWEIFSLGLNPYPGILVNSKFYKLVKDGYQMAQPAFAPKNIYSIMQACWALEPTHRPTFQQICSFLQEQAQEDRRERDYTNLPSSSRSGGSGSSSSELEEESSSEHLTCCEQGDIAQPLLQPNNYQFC

[3] = target: T2, Lymphokine-activated killer T-cell-originated protein kinase (Homo sapiens) (UniProt Q96KB5); experiment: Inhibition of human TOPK at 18.6 nM by HotSpot assay relative to control
T2 sequence (whole entry): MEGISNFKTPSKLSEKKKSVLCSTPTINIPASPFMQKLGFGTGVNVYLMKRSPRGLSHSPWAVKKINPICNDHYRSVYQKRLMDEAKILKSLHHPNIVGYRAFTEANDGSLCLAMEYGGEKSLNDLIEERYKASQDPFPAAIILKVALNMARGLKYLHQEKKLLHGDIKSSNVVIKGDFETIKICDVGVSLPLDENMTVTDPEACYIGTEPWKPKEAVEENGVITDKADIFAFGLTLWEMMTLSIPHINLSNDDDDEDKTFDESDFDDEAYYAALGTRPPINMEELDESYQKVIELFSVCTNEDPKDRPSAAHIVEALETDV

[4] = target: CDK4/Cyclin D3 (Homo sapiens) (UniProt P11802+P30281); experiment: Inhibition of human CDK4/cyclin D3 at 18.6 nM by HotSpot assay relative to control; format: protein-complex assay
[5] = target: Tyrosine-protein kinase ABL1 (Homo sapiens) (UniProt P00519); experiment: Inhibition of human ABL1 at 18.6 nM by HotSpot assay relative to control
Tyrosine-protein kinase ABL1 (Homo sapiens), sequence (P00519 whole entry): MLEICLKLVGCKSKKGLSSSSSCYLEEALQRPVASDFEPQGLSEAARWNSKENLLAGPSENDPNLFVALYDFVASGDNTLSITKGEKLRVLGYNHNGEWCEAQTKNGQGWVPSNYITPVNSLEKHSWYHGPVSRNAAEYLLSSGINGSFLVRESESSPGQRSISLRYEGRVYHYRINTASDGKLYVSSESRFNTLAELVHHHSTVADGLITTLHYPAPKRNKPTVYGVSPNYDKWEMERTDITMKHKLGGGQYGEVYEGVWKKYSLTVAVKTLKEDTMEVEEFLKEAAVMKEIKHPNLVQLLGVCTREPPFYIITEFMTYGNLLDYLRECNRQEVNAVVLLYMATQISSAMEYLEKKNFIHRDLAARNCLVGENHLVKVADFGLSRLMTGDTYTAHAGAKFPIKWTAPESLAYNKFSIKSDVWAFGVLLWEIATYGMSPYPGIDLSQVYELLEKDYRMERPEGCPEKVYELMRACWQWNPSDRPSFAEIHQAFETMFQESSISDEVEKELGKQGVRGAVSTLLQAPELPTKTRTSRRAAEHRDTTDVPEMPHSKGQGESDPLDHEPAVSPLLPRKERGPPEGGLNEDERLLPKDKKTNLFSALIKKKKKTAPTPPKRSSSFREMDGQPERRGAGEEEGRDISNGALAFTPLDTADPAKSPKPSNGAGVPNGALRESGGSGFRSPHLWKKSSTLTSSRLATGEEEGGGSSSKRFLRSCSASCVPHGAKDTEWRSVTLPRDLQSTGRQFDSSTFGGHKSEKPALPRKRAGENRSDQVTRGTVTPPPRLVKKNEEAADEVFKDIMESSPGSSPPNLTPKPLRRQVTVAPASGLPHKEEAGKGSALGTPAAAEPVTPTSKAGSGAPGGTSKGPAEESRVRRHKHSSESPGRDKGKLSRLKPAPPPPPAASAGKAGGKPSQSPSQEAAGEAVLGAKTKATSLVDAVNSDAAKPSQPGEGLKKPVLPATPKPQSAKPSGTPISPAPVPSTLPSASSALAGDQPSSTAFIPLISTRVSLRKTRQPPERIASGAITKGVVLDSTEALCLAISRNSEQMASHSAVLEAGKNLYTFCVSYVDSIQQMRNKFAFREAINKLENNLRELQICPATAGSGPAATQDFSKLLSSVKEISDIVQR

[6] = target: Homeodomain-interacting protein kinase 3 (Homo sapiens) (UniProt Q9H422); experiment: Inhibition of human HIPK3 at 18.6 nM by HotSpot assay relative to control
Homeodomain-interacting protein kinase 3 (Homo sapiens), sequence (Q9H422 whole entry, looked up): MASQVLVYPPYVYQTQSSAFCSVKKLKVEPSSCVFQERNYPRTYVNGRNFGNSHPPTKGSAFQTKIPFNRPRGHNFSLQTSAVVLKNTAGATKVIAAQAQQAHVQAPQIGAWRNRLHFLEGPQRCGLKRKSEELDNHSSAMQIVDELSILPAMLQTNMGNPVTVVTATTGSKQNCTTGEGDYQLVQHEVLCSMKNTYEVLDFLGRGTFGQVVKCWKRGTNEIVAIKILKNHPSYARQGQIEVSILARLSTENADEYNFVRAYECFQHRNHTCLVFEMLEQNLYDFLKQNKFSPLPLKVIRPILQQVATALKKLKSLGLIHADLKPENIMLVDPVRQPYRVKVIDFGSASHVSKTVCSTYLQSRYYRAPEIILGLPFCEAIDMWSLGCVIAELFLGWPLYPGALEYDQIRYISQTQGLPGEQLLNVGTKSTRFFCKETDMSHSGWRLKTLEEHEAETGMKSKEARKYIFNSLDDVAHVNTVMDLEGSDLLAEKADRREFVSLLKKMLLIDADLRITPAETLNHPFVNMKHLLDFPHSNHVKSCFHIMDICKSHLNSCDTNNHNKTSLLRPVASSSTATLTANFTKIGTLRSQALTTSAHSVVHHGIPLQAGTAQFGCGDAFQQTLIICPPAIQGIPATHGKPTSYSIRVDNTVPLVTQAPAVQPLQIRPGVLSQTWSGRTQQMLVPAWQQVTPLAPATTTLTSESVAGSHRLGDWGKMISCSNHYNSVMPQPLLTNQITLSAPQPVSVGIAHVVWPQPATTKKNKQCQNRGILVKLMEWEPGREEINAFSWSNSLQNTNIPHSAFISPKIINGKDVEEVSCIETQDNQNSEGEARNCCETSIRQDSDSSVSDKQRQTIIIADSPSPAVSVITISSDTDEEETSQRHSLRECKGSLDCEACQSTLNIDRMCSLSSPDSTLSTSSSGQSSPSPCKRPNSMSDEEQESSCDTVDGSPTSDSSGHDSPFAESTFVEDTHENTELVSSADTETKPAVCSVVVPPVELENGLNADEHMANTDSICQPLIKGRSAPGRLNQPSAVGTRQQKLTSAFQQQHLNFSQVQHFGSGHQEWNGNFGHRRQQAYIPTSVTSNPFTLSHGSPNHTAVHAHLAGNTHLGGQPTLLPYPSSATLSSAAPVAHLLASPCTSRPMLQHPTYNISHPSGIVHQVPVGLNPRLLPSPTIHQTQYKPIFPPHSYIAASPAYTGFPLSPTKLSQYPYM

[7] = target: Activin receptor type-1-like (Homo sapiens) (UniProt P37023); experiment: Inhibition of human ALK1 at 18.6 nM by HotSpot assay relative to control
Activin receptor type-1-like (Homo sapiens), sequence (P37023 whole entry): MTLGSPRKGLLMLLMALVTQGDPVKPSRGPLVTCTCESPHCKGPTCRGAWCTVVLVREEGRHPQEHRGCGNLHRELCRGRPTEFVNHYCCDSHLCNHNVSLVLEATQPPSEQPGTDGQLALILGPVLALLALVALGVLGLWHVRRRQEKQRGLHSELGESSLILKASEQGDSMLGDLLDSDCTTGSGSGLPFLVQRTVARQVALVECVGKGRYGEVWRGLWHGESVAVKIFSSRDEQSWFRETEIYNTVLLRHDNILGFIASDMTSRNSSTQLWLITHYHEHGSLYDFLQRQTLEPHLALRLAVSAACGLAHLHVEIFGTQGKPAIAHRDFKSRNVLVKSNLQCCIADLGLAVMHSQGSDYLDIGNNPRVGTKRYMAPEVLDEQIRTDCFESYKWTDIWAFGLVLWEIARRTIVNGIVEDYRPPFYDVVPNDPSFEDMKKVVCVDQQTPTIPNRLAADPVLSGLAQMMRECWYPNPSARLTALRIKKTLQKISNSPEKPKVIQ

[8] = target: Dual specificity mitogen-activated protein kinase kinase 1 (Homo sapiens) (UniProt Q02750); experiment: Inhibition of human MEK1 at 18.6 nM by HotSpot assay relative to control
Dual specificity mitogen-activated protein kinase kinase 1 (Homo sapiens), sequence (Q02750 whole entry): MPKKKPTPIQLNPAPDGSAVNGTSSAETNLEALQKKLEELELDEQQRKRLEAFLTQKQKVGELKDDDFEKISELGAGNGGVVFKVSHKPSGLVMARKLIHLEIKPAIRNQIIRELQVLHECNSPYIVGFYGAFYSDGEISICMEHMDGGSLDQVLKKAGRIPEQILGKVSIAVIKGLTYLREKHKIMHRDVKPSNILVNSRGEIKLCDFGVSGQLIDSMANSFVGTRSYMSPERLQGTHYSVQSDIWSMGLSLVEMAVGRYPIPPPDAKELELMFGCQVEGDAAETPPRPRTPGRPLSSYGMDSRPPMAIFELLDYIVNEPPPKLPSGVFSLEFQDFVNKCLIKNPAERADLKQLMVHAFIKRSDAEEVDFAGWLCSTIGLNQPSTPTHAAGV

[9] = target: SRSF protein kinase 3 (Homo sapiens) (UniProt Q9UPE1); experiment: Inhibition of human STK23 at 1.82 nM by HotSpot assay relative to control
SRSF protein kinase 3 (Homo sapiens), sequence (Q9UPE1 whole entry): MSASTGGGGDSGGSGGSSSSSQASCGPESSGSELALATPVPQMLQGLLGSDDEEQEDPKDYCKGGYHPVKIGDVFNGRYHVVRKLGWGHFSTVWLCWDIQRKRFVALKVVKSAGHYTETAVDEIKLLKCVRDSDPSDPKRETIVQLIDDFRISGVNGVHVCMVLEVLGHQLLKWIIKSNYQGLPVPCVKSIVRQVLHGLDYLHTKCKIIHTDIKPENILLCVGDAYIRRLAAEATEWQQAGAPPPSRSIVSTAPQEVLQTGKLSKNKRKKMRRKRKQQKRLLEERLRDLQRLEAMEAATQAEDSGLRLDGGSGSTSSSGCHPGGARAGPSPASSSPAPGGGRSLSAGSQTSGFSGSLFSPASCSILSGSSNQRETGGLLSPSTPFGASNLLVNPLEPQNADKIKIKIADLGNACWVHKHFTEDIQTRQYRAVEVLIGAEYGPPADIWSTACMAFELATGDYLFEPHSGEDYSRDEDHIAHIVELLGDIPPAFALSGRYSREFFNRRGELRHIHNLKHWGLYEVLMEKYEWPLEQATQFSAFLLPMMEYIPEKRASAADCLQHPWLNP

[10] = target: T3, NUAK family SNF1-like kinase 1 (Homo sapiens) (UniProt O60285); experiment: Inhibition of human ARK5 at 1.82 nM by HotSpot assay relative to control
T3 sequence (whole entry): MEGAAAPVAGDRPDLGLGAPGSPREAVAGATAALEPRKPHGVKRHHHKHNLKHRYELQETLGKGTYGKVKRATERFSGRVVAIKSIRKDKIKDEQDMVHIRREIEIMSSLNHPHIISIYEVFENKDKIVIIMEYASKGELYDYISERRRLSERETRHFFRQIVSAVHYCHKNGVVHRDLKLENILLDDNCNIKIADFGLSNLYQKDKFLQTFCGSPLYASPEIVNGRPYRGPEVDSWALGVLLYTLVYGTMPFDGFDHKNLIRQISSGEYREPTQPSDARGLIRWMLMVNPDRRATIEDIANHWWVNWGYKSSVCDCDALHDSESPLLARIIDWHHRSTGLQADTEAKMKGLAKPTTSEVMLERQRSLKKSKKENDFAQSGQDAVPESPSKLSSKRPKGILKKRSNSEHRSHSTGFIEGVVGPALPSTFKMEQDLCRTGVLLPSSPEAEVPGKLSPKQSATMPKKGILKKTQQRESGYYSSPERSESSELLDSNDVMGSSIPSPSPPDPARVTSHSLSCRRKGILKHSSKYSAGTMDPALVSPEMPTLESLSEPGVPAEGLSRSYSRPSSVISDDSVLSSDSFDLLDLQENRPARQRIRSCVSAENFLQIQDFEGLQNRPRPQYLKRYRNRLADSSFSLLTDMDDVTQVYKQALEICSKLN

[11] = target: T4, Serine/threonine-protein kinase BRSK1 (Homo sapiens) (UniProt Q8TDC3); experiment: Inhibition of human BRSK1 at 1.82 nM by HotSpot assay relative to control
T4 sequence (whole entry): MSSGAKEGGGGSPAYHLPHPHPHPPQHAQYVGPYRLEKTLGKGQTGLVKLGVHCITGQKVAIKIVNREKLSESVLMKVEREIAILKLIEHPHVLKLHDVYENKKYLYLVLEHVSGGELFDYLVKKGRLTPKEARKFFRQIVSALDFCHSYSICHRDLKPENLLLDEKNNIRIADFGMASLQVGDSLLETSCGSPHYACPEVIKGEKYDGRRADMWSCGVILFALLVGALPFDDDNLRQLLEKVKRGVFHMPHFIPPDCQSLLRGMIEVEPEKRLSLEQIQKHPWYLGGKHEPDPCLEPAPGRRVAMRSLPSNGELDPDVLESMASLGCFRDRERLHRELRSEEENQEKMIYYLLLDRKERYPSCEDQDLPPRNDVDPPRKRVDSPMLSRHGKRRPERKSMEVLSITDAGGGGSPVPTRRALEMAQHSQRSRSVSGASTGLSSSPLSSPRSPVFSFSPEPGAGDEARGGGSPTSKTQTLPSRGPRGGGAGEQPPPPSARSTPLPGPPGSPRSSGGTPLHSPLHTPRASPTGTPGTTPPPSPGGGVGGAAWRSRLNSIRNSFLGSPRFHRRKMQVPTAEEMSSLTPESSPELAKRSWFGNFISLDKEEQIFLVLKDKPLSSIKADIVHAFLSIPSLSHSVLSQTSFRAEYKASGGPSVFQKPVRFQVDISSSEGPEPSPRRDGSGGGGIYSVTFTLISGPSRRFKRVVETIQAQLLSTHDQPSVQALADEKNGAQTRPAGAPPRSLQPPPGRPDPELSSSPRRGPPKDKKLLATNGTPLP

| Structure (SMILES) | inhibition [1] [%] | inhibition [2] [%] | inhibition [3] [%] | inhibition [4] [%] | inhibition [5] [%] | inhibition [6] [%] | inhibition [7] [%] | inhibition [8] [%] | inhibition [9] [%] | inhibition [10] [%] | inhibition [11] [%] |
| --- | --- | --- | --- | --- | --- | --- | --- | --- | --- | --- | --- |
| C[C@]1(O)C[C@@H](c2nc(-c3ccc4ccc(-c5ccccc5)nc4c3)c3c(N)nccn32)C1 | -0.44 | 5.25 | 1.57 | 2.46 | 9.07 | -5.3 | 1.51 | -8.63 | – | – | – |
| C[C@@]1(C(=O)Nc2ccc(F)nc2)CCCN1c1nc(Nc2cc(C3CC3)n[nH]2)c2cccn2n1 | – | – | – | – | – | – | – | – | -7.78 | 1.78 | -0.42 |
